This is an account of results in ChEMBL document CHEMBL1152592, “Design, synthesis and biological evaluations of novel 7-[3-(1-aminocycloalkyl)pyrrolidin-1-yl]-6-desfluoro-8-methoxyquinolones with potent antibacterial activity against multi-drug resistant Gram-positive bacteria” (Bioorg Med Chem, 2009).

Molecules are shown by their SMILES. Converted amounts (≈) assume the structure as drawn.

The test system of data set [1] is Staphylococcus aureus. The data set can be described thus: Antibacterial activity against Staphylococcus aureus FDA 209-P after 18 hrs by twofold microbroth dilution method. The data set is classed as functional. A general note: Dilution methods test growth across graded concentrations, often in twofold steps.
In data set [2] the test system is Staphylococcus epidermidis. As to the kind of experiment: Antibacterial activity against Staphylococcus epidermidis 56500 after 18 hrs by twofold microbroth dilution method. Format: functional. The note with it: Staphylococcus epidermidis, 56500, 18 h.
A further data set concerns Streptococcus pneumoniae. The data set can be described thus: Antibacterial activity against Streptococcus pneumoniae J-24 after 18 hrs by twofold microbroth dilution method. The data set is classed as functional. The note with it: J-24, 18 h.
The next data set has as its system Streptococcus pyogenes. The data set can be described thus: Antibacterial activity against Streptococcus pyogenes G-36 after 18 hrs by twofold microbroth dilution method. The following applies: G-36, 18 h. Format: functional.
Another data set concerns Streptococcus mitis. The data set can be described thus: Antibacterial activity against Streptococcus mitis IID685 after 18 hrs by twofold microbroth dilution method. The data set is classed as functional. The note with it: IID685, 18 h.
The next data set has as its system Enterococcus faecalis. The data set can be described thus: Antibacterial activity against Enterococcus faecalis ATCC 19433 after 18 hrs by twofold microbroth dilution method. The data set is classed as functional. The following applies: ATCC19433, 18 h.
Another data set has as its system Escherichia coli. The data set can be described thus: Antibacterial activity against Escherichia coli NIHJ after 18 hrs by twofold microbroth dilution method. Format: functional.
The subject of a further data set is Klebsiella pneumoniae. As to the kind of experiment: Antibacterial activity against Klebsiella pneumoniae type 2 after 18 hrs by twofold microbroth dilution method. The note with it: type 2, 18 h. Format: functional.
In the next data set the test system is Pseudomonas aeruginosa. As to the kind of experiment: Antibacterial activity against Pseudomonas aeruginosa PAO1 after 18 hrs by twofold microbroth dilution method. The data set is classed as functional. The note with it: PAO1, 18 h.
Data set [3] concerns Mus musculus. As to the kind of experiment: Toxicity in Slc:ddY mouse at 150 mg/kg, iv. Format: organism-based. Also noted: dose 150 mg/kg, route intravenous. The note with it: in vivo.
Data set [4] has as its system Mus musculus. The data set can be described thus: Toxicity in Slc:ddY mouse at 100 mg/kg, iv. Format: organism-based. Also noted: dose 100 mg/kg, route intravenous. The following applies: in vivo.
The subject of data set [5] is Mus musculus. As to the kind of experiment: Toxicity in Slc:ddY mouse at 50 mg/kg, iv. Format: organism-based. Also noted: dose 50 mg/kg, route intravenous. The following applies: in vivo.
For data set [6], the system named is Mus musculus. The data set can be described thus: Toxicity in Slc:ddY mouse assessed as micronucleated reticulocyte in blood at 50 mg/kg, iv after 48 hrs of treatment by fluorescence microscopy. Format: organism-based. Also noted: dose 50 mg/kg, route intravenous. The note with it: in vivo.
The nature of data set [7]: Aqueous […] of the compound. The following applies: aqueous (not further specified). The data set is classed as physicochemical.
Data set [8] has as its system Staphylococcus aureus. As to the kind of experiment: Antibacterial activity against levofloxacin, methicillin-resistant Staphylococcus aureus after 18 hrs by twofold microbroth dilution method. The data set is classed as functional.
Data set [9] concerns Mus musculus. As to the kind of experiment: Toxicity in Slc:ddY mouse assessed as micronucleated reticulocyte in blood at 100 mg/kg, iv after 48 hrs of treatment by fluorescence microscopy. Also noted: dose 100 mg/kg, route intravenous. Format: organism-based. The following applies: in vivo.

For the compound `COc1c(N2CC[C@@H]([C@H](C)N)C2)ccc2c(=O)c(C(=O)O)cn(C3CC3)c12`, the MIC (as a rule, the least concentration at which growth counts as inhibited) against Staphylococcus aureus [1] was at most 0.003 µg/mL; in data set [2] it was 0.006 µg/mL (≈ 0.0162 µM); with Streptococcus pneumoniae, at most 0.003 µg/mL; in the data set with Streptococcus pyogenes it was 0.012 µg/mL (≈ 0.0323 µM); with Streptococcus mitis, 0.006 µg/mL (≈ 0.0162 µM); against Enterococcus faecalis it was 0.05 µg/mL (≈ 0.135 µM). The MIC against Escherichia coli is 0.012 µg/mL (≈ 0.0323 µM); in the data set with Klebsiella pneumoniae it was 0.1 µg/mL (≈ 0.269 µM); with Pseudomonas aeruginosa, 0.2 µg/mL (≈ 0.538 µM). Besides, the Activity entry in the data set on Mus musculus [3] is reported as “Toxic”; in the data set on Mus musculus [4] it was “Toxic”; in the data set on Mus musculus [5] it was “Non-toxic”; in the data set with Mus musculus [6], “Toxic”. Also, the solubility – broadly, the dissolved amount per volume that the medium holds – in data set [7] was above 10000 µg/mL. In the data set on Staphylococcus aureus [8], the MIC50 – broadly, the lowest concentration that inhibits either 50% of growth or 50% of the strains tested, depending on the study – came out at 0.5 µg/mL (≈ 1.35 µM). In addition, the MIC80 (usually the lowest concentration that inhibits either 80% of growth or 80% of the strains tested, depending on the study) against Staphylococcus aureus [8] was found to be 8 µg/mL (≈ 21.5 µM). In addition, in the data set with Staphylococcus aureus [8], the MIC90 – broadly, the lowest concentration that inhibits either 90% of growth or 90% of the strains tested, depending on the study – was found to be 8 µg/mL (≈ 21.5 µM).

As for `COc1c(N2CC[C@@H](C3(N)CCC3)C2)ccc2c(=O)c(C(=O)O)cn([C@@H]3C[C@@H]3F)c12`, the MIC is at most 0.003 µg/mL in the data set with Staphylococcus aureus [1]; 0.012 µg/mL (≈ 0.0289 µM) in [2]; 0.006 µg/mL (≈ 0.0144 µM) against Streptococcus pneumoniae; 0.006 µg/mL (≈ 0.0144 µM) with Streptococcus pyogenes; 0.003 µg/mL (≈ 0.00722 µM) against Streptococcus mitis; 0.05 µg/mL (≈ 0.12 µM) against Enterococcus faecalis. The MIC was determined as 0.012 µg/mL (≈ 0.0289 µM) in the data set with Escherichia coli, 0.05 µg/mL (≈ 0.12 µM) against Klebsiella pneumoniae and 0.39 µg/mL (≈ 0.939 µM) with Pseudomonas aeruginosa. The Activity result is “Toxic” in the data set on Mus musculus [3], “Non-toxic” in the data set on Mus musculus [4], “Non-toxic” in the data set with Mus musculus [5] and “Toxic” in the data set with Mus musculus [9]. This compound also showed a solubility in data set [7] of 604 µg/mL (≈ 1450 µM).
